Results on one molecule are retold here after patent US6759521B2, “Polarization switching to control crystal form” (priority 2000, dated 2004).

The conditions of this data set: glycine in water, room temperature (21 C). How it is done: Supersaturated solutions of glycine in water, with concentrations ranging from 3.7 M to 3.9 M, were prepared by combining appropriate amounts of solid glycine with 2 g of water in 1.3-cm diameter Pyrex test tubes with screw-on caps. Great care was taken to exclude dust from samples. Supersaturation was achieved by heating the samples in an ultrasonic bath at 50 C, and holding them at that temperature until the glycine was completely dissolved.

`NCC(=O)O` [glycine]: the “csat, concentration of a saturated solution” value was 2.69 M.
